We go through two compounds from patent US4031077A, “Antibacterial 3-phosphono penams” (priority 1976, dated 1977).

Values joined by “and” are separate entries in the source; they are usually repeats but may differ in a detail not shown here. Identical values can stand only once. Counter-ions that a name gives are not always drawn. Like-named read-outs stand apart in the source and are kept apart here. A value given as a limit tells only on which side of the number the result lay.

For one assay, the system named is Staph. aureus. Type of assay: cell-based, Staphlococcus aureus.
A further assay has as its system Strep. equi. Put plainly: microbe, parasite or virus in culture. Type of assay: cell-based, Streptococcus equis. Conditions: 10^5-10^6 cells, 37° C., anaerobic, sodium salt, Test No. 1-2.
For another assay, the system named is Strep. zoo. Type of assay: cell-based, Streptococcus zoobacter. Conditions: Strep. zoo. strain 02H001, brain-heart infusion agar, 10^5-10^6 cells, 37° C., anaerobic, sodium salt, Test No. 1-3.

With `COP(=O)(O)C1N2C(=O)C(NC(=O)COc3ccccc3)C2SC1(C)C` (stereo not drawn) [6-(2-Phenoxyacetamido)-2,2-dimethyl-3-(0-methylphosphono)penam, sodium salt], the “MIC (minimal inhibitory concentration)” value with Staph. aureus (Staph. aureus strain 01A006; brain-heart infusion agar, 10^5-10^6 cells, 37° C., anaerobic; sodium salt; Test No. 1-3) came out at 200 µg/mL. For the same compound, the MIC with Strep. equi. (Streptococcus equi, Strep. equi. strain 02I001, brain-heart infusion agar, read-out: MIC (minimal inhibitory concentration)) was 200 µg/mL.
In the case of `CC1(C)S[C@@H]2C(NC(=O)COc3ccccc3)C(=O)N2C1P(=O)(O)O.[Na]` (stereo partly drawn) [6-(2-Phenoxyacetamido)-2,2-dimethyl-3-phosphonopenam, sodium salt], the “MIC (minimal inhibitory concentration)” value in the assay with Staph. aureus (Staph. aureus strain 01A005, brain-heart infusion agar, 10^5-10^6 cells, 37° C., anaerobic, sodium salt, Test No. 1-3) was greater than 200 µg/mL; in the assay on Staph. aureus (Staph. aureus strain 01A006, brain-heart infusion agar, 10^5-10^6 cells, 37° C., anaerobic, sodium salt, Test No. 1-3), greater than 200 µg/mL; with Strep. zoo. it was 100 µg/mL and 200 µg/mL; with Strep. equi. (Strep. equi. strain 02I001, brain-heart infusion agar) it was 100 µg/mL.
